Reference: publication PMC12167809 (The Journal of Biological Chemistry, 2025)

Test system: β-TrCP1:β-catenin interaction
Format: binding, human
Conditions: saturating concentrations of glue, TR-FRET

## COc1cc2c(cc1OC)CN(C(=O)c1c(Sc3c(Cl)cccc3Cl)cc(C(F)(F)F)[nH]c1=O)C2 [NRX-252262, 4-((2,6-dichlorophenyl)thio)-3-(5,6-dimethoxyisoindoline-2-carbonyl)-6-(trifluoromethyl)pyridin-2(1H)-one]
  Effect on the β-TrCP1:β-catenin interaction: dramatically enhances the interaction between β-TrCP1 and β-catenin
